{
  "source": "patent EP2045266A1",
  "about": "“Methods for treating and diagnosing a cancer secreting cath-D or Alzheimer's disease” (INSERM (Institut National de la Santé et de la Recherche …, priority 2007, dated 2009)",
  "key": {"pro-cath-D": {"biological_target": "T1, pro-cath-D (Homo sapiens, UniProt P07339)", "T1 construct": "the 52, 34, 14 and 4 kDa cath-D fragments were expressed as GST fusion proteins; made in house; host or cells: Escherichia coli BL21 (GST fusion)", "T1 sequence (P07339 21-412)": "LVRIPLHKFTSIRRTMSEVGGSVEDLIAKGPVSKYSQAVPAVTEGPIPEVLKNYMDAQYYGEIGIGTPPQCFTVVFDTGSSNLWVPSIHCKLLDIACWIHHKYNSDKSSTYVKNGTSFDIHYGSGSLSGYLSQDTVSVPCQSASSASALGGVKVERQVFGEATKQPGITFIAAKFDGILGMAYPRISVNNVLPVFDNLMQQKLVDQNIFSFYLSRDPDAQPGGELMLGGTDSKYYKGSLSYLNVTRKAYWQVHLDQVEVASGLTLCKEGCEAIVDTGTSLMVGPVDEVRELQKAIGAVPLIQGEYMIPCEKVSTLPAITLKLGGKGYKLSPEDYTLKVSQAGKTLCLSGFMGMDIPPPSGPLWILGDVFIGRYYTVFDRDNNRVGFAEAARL", "assay": "GST pull-down: competition for binding of LRP1β (1-476) to GST-pro-cath-D", "conditions": "radio-labelled LRP1β (1-476), beads with GST-cath-D/52K, increasing concentration of the peptide; Fig. 2C", "experimental": "• (A) Schematic representation of GST-LRP1β fragments. Shorter GST-LRP1β fragments (F4, F6-F8) were derived from GST-LRP1β (307-479) (F0). The F4 (349-394) GST-LRP1β fragment was then sub-divided into shorter fragments (F5, F9-13). • (B) Binding of pro-cath-D to GST-LRP1β fragments. Radio-labelled pro-cath-D was incubated with beads containing GST-LRP1β fragments or GST. GST proteins bound to beads were stained by Coomassie (panels a, c) and bound pro-cath-D was detected by autoradiography (panels b, d). • (C) Effect of the (349-397) LRP1 peptide for the binding of the extracellular domain of LRP1β (1-476) to pro-cath-D. Schematic representation and numbering of the EGF-like repeats 16 to 22 present in the extracellular domain of LRP1β is shown in panel a. Radio-labelled extracellular domain of LRP1β (1-476) was incubated with beads containing GST-cath-D/52K in the absence or presence of increasing concentration of the (349-397) LRP1 peptide (panel b). GST proteins stained by Coomassie are shown in left panel and bound LRP1β (1-476) in right panel .\nGST pull-down assays. [^35S]methionine-labelled pro-cath-D or LRP1β(1-476) were obtained by transcription and translation of pcDNA3.1(-)cath-D or pcONA3.1(+)LRP1β extracellular domain(1-476) expression plasmids, respectively, using the TNT^T7-coupled reticulocyte lysate system (Promega). […]"}, "[1]": {"biological_target": "auto-activated pro-cath-D (Homo sapiens, UniProt P07339)", "sequence (P07339 65-412)": "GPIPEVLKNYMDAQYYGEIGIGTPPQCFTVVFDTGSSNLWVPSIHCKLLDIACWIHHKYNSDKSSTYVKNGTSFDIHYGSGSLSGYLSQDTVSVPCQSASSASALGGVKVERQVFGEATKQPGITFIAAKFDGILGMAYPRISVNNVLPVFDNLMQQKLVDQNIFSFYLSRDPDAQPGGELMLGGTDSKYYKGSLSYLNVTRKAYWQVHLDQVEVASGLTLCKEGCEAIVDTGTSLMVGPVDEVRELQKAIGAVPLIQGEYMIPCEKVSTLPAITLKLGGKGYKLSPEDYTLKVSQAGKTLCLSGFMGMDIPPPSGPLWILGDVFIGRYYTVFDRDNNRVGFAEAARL", "assay": "Cleavage of the LRP1 [349-397] peptide by auto-activated pro-cath-D (HPLC, NH2-terminal sequencing)", "format": "biochemical", "conditions": "pro-cath-D 500 ng auto-activated at pH 3.5 for 30 min, 2 h with 50 µM peptide at pH 3.5", "from_the_text": "(§1) • (A) Shedding of LRP1 β chain ectodomain. SEAP activity was quantified in the medium of COS cells transiently transfected with SEAP-LRP1β and β-galactosidase vectors in the absence or presence of cath-D vector (panel a). The mean ± SD of 4 independent determinations with both transfections and measurements carried in duplicate is shown *, p<0.0025 versus control (Student's t-test). […] A representative experiment from a transfection performed in duplicate is shown. Similar results were obtained in another independent experiment. • (B) Cleavage of the LRP1 [349-397] peptide by auto-activated pro-cath-D. Pro-cath-D (500 ng), auto-activated at pH 3.5 for 30 min, was incubated for 2 h with 50 µM of LRP1 [349-397] peptide at pH 3.5. Cleaved peptides were resolved by reverse-phase HPLC and subjected to NH2-terminal sequence analysis. Arrows indicate the 3 cleavage sites. • (C) Production of LRP1 β carboxyl-terminal fragment. COS cells, transfected with Myc-LRP1β in the absence or presence of wild-type or D231 N cath-D, were treated with DAPT (1 µM) or DMSO for 24 h. Cells were lysed and the full-length Myc-LRP1β and its carboxy-terminal fragment (LRP1β-CTF) were isolated by immunoprecipitation and visualized by immunoblotting with the monoclonal antibody 11H4. *, p<0.025 versus Luc siRNA HMF cells; **, p<0.0025 versus Luc siRNA HMF cells (Student's t-test)."}, "LRP1β-CTF [2]": {"test_system": "LRP1β-CTF", "assay": "Production of LRP1β-CTF and shedding of LRP1β in HMF fibroblasts", "format": "cell-based, human", "conditions": "DAPT 1 µM, 24 h, Fig. 6B panel a", "experimental": "(§2) • (A) Pro-cath-D is internalized in part by LRP1. Conditioned media containing labelled pro-cath-D was produced by incubating cath-D expressing 3Y1-Ad12 cells with [S^35]methionine and [S^35]cysteine for 24 h. HMF fibroblasts were transiently transfected with either Luc siRNA or LRP1 siRNA1 and endocytosis of labelled pro-cath-D was performed 48 h post-transfection. For endocytosis, siRNAs-transfected HMF fibroblasts were incubated for 3 h (panel a) or for 18h (panel c) with conditioned medium containing labelled pro-cath-D in the absence or presence of 10 mM M6P. Cell lysates containing endocytosed labelled cath-D were analyzed by SDS-PAGE after immunoprecipitation with M1G8 anti-cath-D antibody (panels a and c). LRP1β expression was monitored in HMF fibroblasts by immunoblotting 48 h post-transfection with either Luc or LRP1 siRNAs (panels b and d). ßactin was used as a loading control. […] LRP1β shedded in the media of HMF fibroblasts after 24 h in the presence of DAPT (1 µM) was detected by immmunoblotting with the monoclonal antibody #3501 directed against the extracellular LRP1 β chain (panel b). […]\n(§3) Immunoblotting. […] Equal amounts of protein (100 µg) from cell extracts quantitated by the Bradford assay, or equal volumes (80 µl) of conditioned media, were separated by SDS-PAGE on a 7.5 % gel for anti-LRP1β immunoblotting or on a 12 % gel for anti-cath-D immuno-blotting. […]"}, "LRP1β-CTF [3]": {"test_system": "LRP1β-CTF", "assay": "Production of LRP1β carboxyl-terminal fragment in COS cells (immunoprecipitation and immunoblotting)", "format": "cell-based", "conditions": "COS cells transfected with Myc-LRP1β, DAPT 1 µM for 24 h; Fig. 5C", "from_the_text": "as §1, with “Cells were lysed and the full-length Myc-LRP1β and its carboxy-terminal fragment (LRP1β-CTF) were isolated by immunoprecipitation and visualized by immunoblotting with the monoclonal antibody 11H4. *, p<0.025 versus Luc siRNA HMF cells; **, p<0.0025 versus Luc siRNA HMF cells (Student's t-test).” left out\nas §3"}, "HMF fibroblasts": {"test_system": "HMF fibroblasts", "assay": "Endocytosis of labelled pro-cath-D in HMF fibroblasts", "format": "cell-based", "conditions": "Homo sapiens, Fibroblast, over 3 h, 10 mM M6P, read-out: inhibition of pro-cath-D internalization", "experimental": "as §2"}, "SEAP-LRP1β": {"test_system": "SEAP-LRP1β", "assay": "LRP1 ectodomain secretion assay (SEAP activity in the medium)", "format": "cell-based", "conditions": "cath-D expressing COS cells, pepstatin 100 µM; Fig. 5A panel b", "from_the_text": "as §1, with “Cells were lysed and the full-length Myc-LRP1β and its carboxy-terminal fragment (LRP1β-CTF) were isolated by immunoprecipitation and visualized by immunoblotting with the monoclonal antibody 11H4. *, p<0.025 versus Luc siRNA HMF cells; **, p<0.0025 versus Luc siRNA HMF cells (Student's t-test).” left out\nLRP1 ectodomain secretion assay. […] SEAP activity was normalized to […] activity measured by hydrolysis of o-nitrophenyl-β-D-galactopyranoside in cells lysed in the reporter lysis buffer (Promega)."}},
  "note": "Non-standard residues stand in square brackets, D forms with d. Residues, ends and D or L forms follow the SMILES beside them. *: point of attachment. Sta = CC(C)C[C@H](N)[C@@H](O)CC(=O)O; Isovaleryl = CC(C)CC(=O)*",
  "data": [
    {"compound": "49-mer: polypeptide sequence of 49 amino acids corresponding to the 349-397 fragment of the extra-cellular LRP1 β chain, SEQ ID NO: 5 (CRCLPGFLGDRCQYRQCSGYCENFGTCQMAADGSRQCRCTAYFEGSRCE)", "values": [
      {"measurement": "competition for the binding of LRP1β (1-476) to GST-pro-cath-D", "setting": "pro-cath-D", "result": "competed efficiently"},
      {"measurement": "cleavage sites", "setting": "[1]", "result": 3}
    ]},
    {"compound": "C[C@H](NC(=O)Cc1cc(F)cc(F)c1)C(=O)N[C@H](C(=O)OC(C)(C)C)c1ccccc1", "note": "[DAPT]", "values": [
      {"measurement": "level of membrane bound LRP1β-CTF", "setting": "LRP1β-CTF [2]", "result": "further increase"},
      {"measurement": "presence of LRP1β-CTF", "setting": "LRP1β-CTF [3]", "result": "strong increase"}
    ]},
    {"compound": "O=C[C@@H](O)[C@@H](O)[C@H](O)[C@H](O)COP(=O)(O)O", "note": "[M6P, mannose-6-phosphate]", "values": [
      {"measurement": "inhibition at 10000 µM", "setting": "HMF fibroblasts", "result": 82, "unit": "%"}
    ]},
    {"compound": "CC(C)CC(=O)N[C@H](C(=O)N[C@H](C(=O)N[C@@H](CC(C)C)[C@@H](O)CC(=O)N[C@@H](C)C(=O)N[C@@H](CC(C)C)[C@@H](O)CC(=O)O)C(C)C)C(C)C", "note": "[pepstatin A] (Isovaleryl-VV[Sta]A[Sta]-OH)", "values": [
      {"measurement": "SEAP-LRP1β ectodomain shedding", "setting": "SEAP-LRP1β", "result": "prevented"}
    ]}
  ]
}
